Reference: PubChem BioAssay AID1745844 (Carcinogenic Potency Database (CPDB), 2022)
Calls of active or inactive are those of the source. The rule behind the calls is not given here.

Test system: rodent lifetime carcinogenesis bioassay, tumor incidence TD50
Assay: carcinogenic potency in animals, long-term in vivo studies, CPDB compilation (AID 1745844)

`NC(=O)N(CCO)N=O` was tested, and the TD50 (mouse, strain Swiss, females, in drinking water, site: all sites, lesion: lymphoma, dosed 50 weeks, study length 51 weeks) was 0.603 mg/kg/day, the TD50 (mouse, strain Swiss, females, in drinking water, site: lung, lesion: adenoma, dosed 50 weeks, study length 51 weeks) was 1.97 mg/kg/day and the TD50 (mouse, strain Swiss, males, in drinking water, site: all sites, lesion: lymphoma, dosed 50 weeks, study length 51 weeks) was 1.27 mg/kg/day. For the same compound, the TD50 (mouse, strain Swiss, males, in drinking water, site: any site (literature study), lesion: one or several types, types not named, dosed 50 weeks, study length 51 weeks) was 0.353 mg/kg/day, the TD50 (mouse, strain Swiss, males, in drinking water, site: lung, lesion: adenoma, dosed 50 weeks, study length 51 weeks) was 0.382 mg/kg/day and the TD50 (rat, strain Fischer 344, females, by gavage, site: Zymbal's gland, lesion: carcinoma, dosed 37 weeks, study length 60 weeks) was 3.15 mg/kg/day. The TD50 (rat, strain Fischer 344, females, by gavage, site: colon, lesion: adenoma, dosed 37 weeks, study length 60 weeks) was 1.53 mg/kg/day, the TD50 (rat, strain Fischer 344, females, by gavage, site: forestomach, lesion: squamous-cell carcinoma, dosed 37 weeks, study length 60 weeks) was 3.15 mg/kg/day and the TD50 (rat, strain Fischer 344, females, by gavage, site: mammary gland, lesion: adenocarcinoma, dosed 37 weeks, study length 60 weeks) was 0.452 mg/kg/day. For the same compound, the TD50 (rat, strain Fischer 344, males, by gavage, site: Zymbal's gland, lesion: carcinoma, dosed 37 weeks, study length 55 weeks) was 0.879 mg/kg/day, the TD50 (rat, strain Fischer 344, males, by gavage, site: Zymbal's gland, lesion: several types, types named in the paper, dosed 37 weeks, study length 55 weeks) was 0.568 mg/kg/day and the TD50 (rat, strain Fischer 344, males, by gavage, site: colon, lesion: adenocarcinoma, dosed 37 weeks, study length 55 weeks) was 0.983 mg/kg/day. For the same compound, the TD50 (rat, strain Fischer 344, males, by gavage, site: colon, lesion: several types, types named in the paper, dosed 37 weeks, study length 55 weeks) was 0.24 mg/kg/day, the TD50 (rat, strain Fischer 344, males, by gavage, site: forestomach, lesion: several types, types named in the paper, dosed 37 weeks, study length 55 weeks) was 0.203 mg/kg/day and the TD50 (rat, strain Fischer 344, males, by gavage, site: forestomach, lesion: squamous-cell carcinoma, dosed 37 weeks, study length 55 weeks) was 0.637 mg/kg/day. It also gave a TD50 (rat, strain Fischer 344, males, by gavage, site: lung, lesion: malignant tumor, dosed 37 weeks, study length 55 weeks) of 0.602 mg/kg/day, a TD50 (rat, strain Fischer 344, males, by gavage, site: lung, lesion: several types, types named in the paper, dosed 37 weeks, study length 55 weeks) of 0.0776 mg/kg/day and a TD50 (rat, strain MRC-Wistar, females, in drinking water, site: all sites, lesion: B-cell lymphoma, dosed 39 weeks, study length 85 weeks) of 3.16 mg/kg/day. The TD50 (rat, strain MRC-Wistar, females, in drinking water, site: all sites, lesion: myelocytic leukemia, dosed 39 weeks, study length 85 weeks) was 3.16 mg/kg/day (inactive), the TD50 (rat, strain MRC-Wistar, females, in drinking water, site: any site (literature study), lesion: one or several types, types not named, dosed 39 weeks, study length 85 weeks) was 0.32 mg/kg/day and the TD50 (rat, strain MRC-Wistar, females, in drinking water, site: liver, lesion: one or several types, types not named, dosed 39 weeks, study length 85 weeks) was 10 mg/kg/day. The TD50 (rat, strain MRC-Wistar, males, in drinking water, site: all sites, lesion: B-cell lymphoma, dosed 39 weeks, study length 85 weeks) was 1.56 mg/kg/day, the TD50 (rat, strain MRC-Wistar, males, in drinking water, site: all sites, lesion: lymphocytic lymphoma, dosed 52 weeks, study length 70 weeks) was 2.03 mg/kg/day and the TD50 (rat, strain MRC-Wistar, males, in drinking water, site: all sites, lesion: malignant lymphoma, dosed 52 weeks, study length 70 weeks) was 2.03 mg/kg/day. For the same compound, the TD50 (rat, strain MRC-Wistar, males, in drinking water, site: all sites, lesion: myelocytic leukemia, dosed 39 weeks, study length 85 weeks) was 2.02 mg/kg/day (inactive), the TD50 (rat, strain MRC-Wistar, males, in drinking water, site: any site (literature study), lesion: one or several types, types not named, dosed 39 weeks, study length 85 weeks) was 0.195 mg/kg/day and the TD50 (rat, strain MRC-Wistar, males, in drinking water, site: any site (literature study), lesion: several types, types named in the paper, dosed 52 weeks, study length 70 weeks) was 0.36 mg/kg/day. It also gave a TD50 (rat, strain MRC-Wistar, males, in drinking water, site: bone, lesion: osteosarcoma, dosed 39 weeks, study length 85 weeks) of 1.56 mg/kg/day, a TD50 (rat, strain MRC-Wistar, males, in drinking water, site: bone, lesion: osteosarcoma, dosed 52 weeks, study length 70 weeks) of 1.52 mg/kg/day and a TD50 (rat, strain MRC-Wistar, males, in drinking water, site: liver, lesion: one or several types, types not named, dosed 39 weeks, study length 85 weeks) of 2.77 mg/kg/day. For the same compound, the TD50 (rat, strain Wistar, males, in drinking water, site: all sites, lesion: B-cell lymphoma, dosed 90 weeks, study length 90 weeks) was 15.9 mg/kg/day, the TD50 (rat, strain Wistar, males, in drinking water, site: all sites, lesion: myelocytic leukemia, dosed 90 weeks, study length 90 weeks) was 3.66 mg/kg/day and the TD50 (rat, strain Wistar, males, in drinking water, site: any site (literature study), lesion: one or several types, types not named, dosed 90 weeks, study length 90 weeks) was 0.576 mg/kg/day. For the same compound, the TD50 (rat, strain Wistar, males, in drinking water, site: kidney, lesion: one or several types, types not named, dosed 90 weeks, study length 90 weeks) was 4.93 mg/kg/day, the TD50 (rat, strain Wistar, males, in drinking water, site: lung, lesion: one or several types, types not named, dosed 90 weeks, study length 90 weeks) was 1.59 mg/kg/day and the TD50 (rat, strain Wistar, males, in drinking water, site: mammary gland, lesion: adenocarcinoma, dosed 90 weeks, study length 90 weeks) was 4.14 mg/kg/day.
With `O=c1c(CO)c/c(=N/Nc2ccc(S(=O)(=O)O)c3ccccc23)c(=O)/c1=N/Nc1ccc(S(=O)(=O)O)c2ccccc12` the TD50 (mouse, strain Tuck, females, in feed, site: all sites, lesion: lymphosarcoma, dosed 80 weeks, study length 80 weeks) was 36.3 mg/kg/day (inactive), the TD50 (mouse, strain Tuck, females, in feed, site: liver, lesion: hyperplastic nodule, dosed 80 weeks, study length 80 weeks) was 8440 mg/kg/day (inactive) and the carcinogen call (mouse, strain Tuck, females, in feed, site: lung, lesion: adenoma, dosed 80 weeks, study length 80 weeks) was “negative (inactive)”. For the same compound, the TD50 (mouse, strain Tuck, males, in feed, site: liver, lesion: hyperplastic nodule, dosed 80 weeks, study length 80 weeks) was 106000 mg/kg/day (inactive), the carcinogen call (mouse, strain Tuck, males, in feed, site: liver, lesion: liver-cell adenoma, dosed 80 weeks, study length 80 weeks) was “negative (inactive)” and the carcinogen call (mouse, strain Tuck, males, in feed, site: lung, lesion: adenoma, dosed 80 weeks, study length 80 weeks) was “negative (inactive)”.
For `COc1cc(N)ccc1N=Nc1ccccc1`, the carcinogen call (mouse, strain B6C3F1, females, in feed, site: liver, lesion: one or several types, types not named, dosed 56 weeks, study length 56 weeks) was “negative (inactive)” and the carcinogen call (mouse, strain B6C3F1, males, in feed, site: liver, lesion: one or several types, types not named, dosed 56 weeks, study length 56 weeks) was “negative (inactive)”.
In the case of `O=CNNC=O`, the TD50 (mouse, strain Swiss albino, females, in drinking water, site: liver, lesion: hepatoma, dosed 83 weeks, study length 83 weeks) is reported as 7820 mg/kg/day (inactive), the TD50 (mouse, strain Swiss albino, females, in drinking water, site: liver, lesion: several types, types named in the paper, dosed 83 weeks, study length 83 weeks) is reported as 89200 mg/kg/day and the TD50 (mouse, strain Swiss albino, females, in drinking water, site: lung, lesion: adenocarcinoma, dosed 83 weeks, study length 83 weeks) is reported as 2170 mg/kg/day. The TD50 (mouse, strain Swiss albino, females, in drinking water, site: lung, lesion: adenoma, dosed 83 weeks, study length 83 weeks) was 561 mg/kg/day, the TD50 (mouse, strain Swiss albino, females, in drinking water, site: lung, lesion: several types, types named in the paper, dosed 83 weeks, study length 83 weeks) was 571 mg/kg/day and the TD50 (mouse, strain Swiss albino, males, in drinking water, site: liver, lesion: hepatoma, dosed 83 weeks, study length 83 weeks) was 11300 mg/kg/day (inactive). The TD50 (mouse, strain Swiss albino, males, in drinking water, site: liver, lesion: several types, types named in the paper, dosed 83 weeks, study length 83 weeks) was 8140 mg/kg/day, the TD50 (mouse, strain Swiss albino, males, in drinking water, site: lung, lesion: adenocarcinoma, dosed 83 weeks, study length 83 weeks) was 4530 mg/kg/day and the TD50 (mouse, strain Swiss albino, males, in drinking water, site: lung, lesion: adenoma, dosed 83 weeks, study length 83 weeks) was 779 mg/kg/day. For the same compound, the TD50 (mouse, strain Swiss albino, males, in drinking water, site: lung, lesion: several types, types named in the paper, dosed 83 weeks, study length 83 weeks) was 806 mg/kg/day.
In the case of `C=C(C)CCl`, the TD50 (mouse, strain B6C3F1, females, by gavage, site: any site (literature study), lesion: several types, types named in the paper, dosed 103 weeks, study length 105 weeks) is reported as 149 mg/kg/day, the TD50 (mouse, strain B6C3F1, females, by gavage, site: forestomach, lesion: squamous-cell carcinoma + squamous-cell papilloma, dosed 103 weeks, study length 105 weeks) is reported as 82.3 mg/kg/day and the TD50 (mouse, strain B6C3F1, females, by gavage, site: forestomach, lesion: squamous-cell papilloma, dosed 103 weeks, study length 105 weeks) is reported as 87.7 mg/kg/day. The TD50 (mouse, strain B6C3F1, females, by gavage, site: lung, lesion: alveolar/bronchiolar adenoma + alveolar/bronchiolar carcinoma, dosed 103 weeks, study length 105 weeks) was 5180 mg/kg/day, the TD50 (mouse, strain B6C3F1, males, by gavage, site: any site (literature study), lesion: several types, types named in the paper, dosed 103 weeks, study length 105 weeks) was 402 mg/kg/day and the TD50 (mouse, strain B6C3F1, males, by gavage, site: forestomach, lesion: squamous-cell carcinoma + squamous-cell papilloma, dosed 103 weeks, study length 105 weeks) was 73.5 mg/kg/day. It also gave a TD50 (mouse, strain B6C3F1, males, by gavage, site: forestomach, lesion: squamous-cell carcinoma, dosed 103 weeks, study length 105 weeks) of 432 mg/kg/day, a TD50 (mouse, strain B6C3F1, males, by gavage, site: forestomach, lesion: squamous-cell papilloma, dosed 103 weeks, study length 105 weeks) of 96.2 mg/kg/day and a TD50 (mouse, strain BDF1, females, inhaled, site: Harderian gland, lesion: adenoma, dosed 104 weeks, study length 104 weeks) of 665 mg/kg/day. It also gave a TD50 (mouse, strain BDF1, females, inhaled, site: forestomach, lesion: squamous-cell papilloma, dosed 104 weeks, study length 104 weeks) of 1850 mg/kg/day, a TD50 (mouse, strain BDF1, females, inhaled, site: liver, lesion: hepatocellular carcinoma, dosed 104 weeks, study length 104 weeks) of 60000 mg/kg/day and a TD50 (mouse, strain BDF1, females, inhaled, site: lung, lesion: alveolar/bronchiolar carcinoma, dosed 104 weeks, study length 104 weeks) of 6750 mg/kg/day. The TD50 (mouse, strain BDF1, males, inhaled, site: forestomach, lesion: squamous-cell carcinoma, dosed 104 weeks, study length 104 weeks) was 11500 mg/kg/day, the TD50 (mouse, strain BDF1, males, inhaled, site: forestomach, lesion: squamous-cell papilloma, dosed 104 weeks, study length 104 weeks) was 2040 mg/kg/day and the TD50 (mouse, strain BDF1, males, inhaled, site: lung, lesion: alveolar/bronchiolar adenoma, dosed 104 weeks, study length 104 weeks) was 1020 mg/kg/day. It also gave a TD50 (mouse, strain BDF1, males, inhaled, site: lung, lesion: alveolar/bronchiolar carcinoma, dosed 104 weeks, study length 104 weeks) of 1570 mg/kg/day, a TD50 (rat, strain Fischer 344, females, by gavage, site: any site (literature study), lesion: several types, types named in the paper, dosed 103 weeks, study length 105 weeks) of 323 mg/kg/day and a TD50 (rat, strain Fischer 344, females, by gavage, site: forestomach, lesion: papilloma, NOS, dosed 103 weeks, study length 105 weeks) of 320 mg/kg/day. It also gave a TD50 (rat, strain Fischer 344, females, by gavage, site: subcutaneous tissue, lesion: fibroma, dosed 103 weeks, study length 105 weeks) of 524 mg/kg/day, a TD50 (rat, strain Fischer 344, males, by gavage, site: any site (literature study), lesion: several types, types named in the paper, dosed 103 weeks, study length 105 weeks) of 109 mg/kg/day and a TD50 (rat, strain Fischer 344, males, by gavage, site: forestomach, lesion: papilloma, NOS, dosed 103 weeks, study length 105 weeks) of 68.7 mg/kg/day. It also gave a TD50 (rat, strain Fischer 344, males, by gavage, site: liver, lesion: hepatocellular adenoma + hepatocellular carcinoma + neoplastic nodule, dosed 103 weeks, study length 105 weeks) of 714 mg/kg/day and a TD50 (rat, strain Fischer 344, males, by gavage, site: testis, lesion: interstitial-cell tumor, dosed 103 weeks, study length 105 weeks) of 54 mg/kg/day.
